Starred links: 1 amine or outer side, 2 acyl side, 3 side chain; linkers in the order of their positions; H or OH if unused. Residues, ends and D or L forms follow the SMILES beside them. *: point of attachment. βAsp = O=C(O)[CH](CC(=O)[*:2])N[*:1]; Bz = O=C(c1ccccc1)*
Row | SMILES | melting point [°C]
1 | O=C(O)C1CC(=C2CCCN(c3ccccc3)C2=O)c2ccc(Cl)cc2N1 (stereo not given) | 130 to 133
2 | c1cc(-c2ccsc2)ccn1 | 138
3 | Fc1ccc(-n2c(CCl)csc2=S)c(F)c1F | 127 to 130
4 | COc1ccc(Cc2nc(-c3ccc(F)cc3)c(-c3ccc(S(C)(=O)=O)cc3)o2)cc1 | 123 to 124
5 | O=c1[nH]c2ccc(CCCCN3CCN(c4cccc5ccccc45)CC3)cc2o1 | 231 to 233
6 | CCOC(=O)c1cc2c3ccccc3n(Cc3ccccc3)c2cn1 | 126 to 127
7 | CC(C)C[C@@H](C(=O)O)N(C)C(=O)OCc1ccccc1 | 69 to 71
8 | Oc1cccc(-c2ccc(OC[C@H](O)CCc3cccnc3)cc2)c1 | 169
9 | O=C(CCC(O)c1cccs1)Nc1cccc2cc(-c3nccs3)[nH]c12 (stereo not given) | 155 to 157
10 | COc1c(C)c(N2CCN(c3ccc(OC(F)(F)F)cc3)CC2)c(C)c2c1OC(C)(C)C2 | 162 to 164
11 | O=C(O)c1cc(-c2ccc3c(c2)CCO3)nn(CC=Cc2ccc(Cl)cc2)c1=O | 177 to 181
12 | O=CN1CCN(c2nc(N3CCSCC3)c3ncnc(NCc4ccccc4)c3n2)CC1 | 94 to 96
13 | COc1cc(CBr)cc(OC)c1 | 70 to 72
14 | CCc1nn2ccc3oc(C)cc3c2c1CCNC(C)=O | 128 to 129
15 | CCOC(=O)c1cc([N+](=O)[O-])cn1Cc1ccccc1 | 73
16 | CN(C)c1cc(C(O)CS(C)(=O)=O)cc(N(C)C)c1 (stereo not given) | 128 to 130
17 | COC(=O)C1C(=O)Nc2ccc(Cl)cc2CC1c1ccc(OC)cc1 (stereo not given) | 189 to 190
18 | Cc1cc(C)cc(C(O)(CCc2cncn2Cc2ccccc2)c2cc(C)cc(C)c2)c1 | 120 to 124
19 | CCCc1c(Cl)oc2ccc(I)cc2c1=O | 103 to 105
20 | Oc1nc(S)n(-c2ccccc2)n1 | 223 to 226
21 | CCOC(=O)c1nc(C)n2c1CN=C(c1ccccc1Cl)c1cc([N+](=O)[O-])ccc1-2 | 233 to 234
22 | N#Cc1ccc(-n2c(N)nc3ccccc32)cc1-c1ccoc1 | 140 to 144
23 | CS(=O)(=O)c1ccc(C(Cc2cccc(F)c2)C(=O)Nc2cnc(CO)cn2)cc1 (stereo not given) | 82.8 to 98.7
24 | CCOC(=O)Cc1nc(-c2ccc(F)cc2)oc1CC(C)C | 60 to 61
25 | Nc1cc(C(O)=S)cc(SCc2ccccc2)c1-c1ccccc1 | 170 to 172

Row | SMILES | melting point [°C]
26 | CCOC(=O)c1cc2c(C(F)(F)F)coc2nc1C(=O)OCC | 50 to 55
27 | COC(=O)C1=C(N)CC2CC[C@H]1N2C | 95 to 98
28 | COc1ccc(S(=O)(=O)NCCc2ccc(CC(=O)O)cc2)cc1 | 160 to 162
29 | O=C(CCCCCN1CCN(c2ccc3c(c2)CCC3)CC1)N1Cc2ccccc2C1 | 131
30 | CCN1CCCC(c2ccc(OC)c(OC)c2)C1 (stereo not given) | 50
31 | Cn1ncc2c1-c1c(Oc3ccc(CC(=O)O)cc3)sc(C(N)=O)c1CC2 | 213 to 214
32 | CN(C)CCCOc1ccc(C[C@H](NC(=O)[C@@H]2CCCN2S(=O)(=O)c2ccc(Cl)s2)C(=O)O)cc1 | > 200
33 | CC(=O)NC[C@H]1CN(c2ccc(-c3ccncc3)c(F)c2)C(=O)O1 | 179 to 180
34 | COC(=O)C(C)Oc1cc(Cl)ccc1COc1ccc(-c2nn(C)c(OC(F)F)c2Cl)cc1 (stereo not given) | 61 to 64
35 | CN(C)C1CCN(c2nc(N3CCOCC3)c3ncnc(N(CCCN)Cc4ccccc4)c3n2)CC1 | 102 to 105
36 | O=C(O)c1ccnc(-c2cccc3cc(Cc4cccc(C(F)(F)F)c4)sc23)c1 | 231 to 232
37 | CON=C1C(C)(C)c2cc3nc(SCc4ncc(C)c(OC)c4C)[nH]c3cc2C1(C)C | 110 to 112
38 | Cc1nc(-c2ccc(Cl)cc2Cl)c(Br)n1C(F)F | 81 to 83
39 | O=S(=O)(Nc1ccc(C(F)(F)F)cc1Cl)c1cc(C(F)(F)F)ccc1Cl | 122 to 123
40 | CS(=O)(=O)OCCCC1Oc2cc3c(cc2NC1=O)CCCC3 (stereo not given) | 153 to 154
41 | CCOC=CC(=O)Nc1ccc(-n2cnc(C)c2)cc1 | 214 to 216
42 | C=CCNC(=O)c1ccc(-n2c(C)ccc2C)cc1Br | 136 to 138
43 | CC(=Cc1ccc(O)cc1)c1ccc2c(c1)C(C)(C)CC2(C)C | 137
44 | O=C(CCc1ccccc1)N[C@H]1C[C@H](C(=O)O)Nc2cc(Cl)cc(Cl)c21 (relative stereo) | 188
45 | Nc1nc(Cn2c(-c3ccc(Oc4cncnc4)cc3)ccc2-c2ccccc2Cl)ccc1OCCO | 78 to 81
46 | Cc1oc(-c2ccc3ccccc3c2)nc1COc1ccc(CCCC2OCCO2)cc1 | 141 to 142
47 | CC(C)(CC(N)=O)c1ccc2c(c1)OCO2 | 70 to 71.5
48 | OC1C2=C(CCN1CCCCc1c[nH]c3ccccc13)c1ccccc1C2 (stereo not given) | 205 to 208
49 | CC1N=C(c2ccccc2Cl)c2cc([N+](=O)[O-])ccc2NC1=S (single isomer, unassigned; (+)) | 258 to 260
50 | COC1(C)CC(NC(=O)C(F)(F)F)C(O)(NC(=O)C(F)(F)F)C(C)O1 (stereo not given) | 165 to 166

Row | SMILES | melting point [°C]
51 | CCC1(C)CC(=O)C(C(=O)Nc2cccc(C(F)(F)F)c2)C(=O)C1 (stereo not given) | 81 to 82
52 | CCOC(CI)=Nc1ccc(Cl)cc1C(=O)c1ccccc1 | 67 to 68
53 | COc1cc(C(=O)c2ccc(C(F)(F)F)cc2)cc(N)c1OC | 95 to 96
54 | C=Cc1ccc(NC(C)=O)nc1 | 120 to 121
55 | CCCOc1cc(C)c2cc(Cn3ccnc3)ccc2n1 | 138
56 | NC(=O)CNC(=S)Nc1c(Cl)cccc1Cl | 189 to 191
57 | COc1ccc(Cl)cc1-c1nnn(-c2ccc(C(F)(F)F)cc2Cl)c1N | 153
58 | COc1ccc(C2=NN(c3ccc(C(=O)N4CCN(c5c(Cl)cncc5Cl)CC4)cc3)C(=O)[C@@H]3CC=CC[C@H]23)cc1OC | 137 to 139
59 | N=C(N)NCCSCc1nccs1 | 120 to 122
60 | CCOC(=O)C(C)(C#N)c1cccc(S(=O)(=O)c2ccccc2Cl)c1OC (stereo not given) | 178 to 179
61 | c1ccc(C2(Oc3ccccn3)CCNCC2)cc1 | 86 to 87
62 | Nc1nc(-c2ccccc2)c(-c2ccc(=O)n(CC3CC3)n2)s1 | 204 to 206
63 | COc1nccc(C)c1NC(=O)OC(C)(C)C | 93 to 95
64 | Cc1cc2c(cc1Cl)C(c1ccccc1)(N1CCOCC1)ON2C(C)(C)C (stereo not given) | 131 to 133
65 | Cc1nc2ccccn2c(=O)c1CCN1CCC(Nc2nc3ccccc3n2Cc2cnccn2)CC1 | 204
66 | COC1(C(O)CN2CCC(n3c(=O)[nH]c4ccccc43)CC2)COc2ccccc2O1 (stereo not given) | 143 to 144
67 | C=CCOC(=O)c1cccc(C2=Nc3cc(C)c(-c4cccc(CF)c4)cc3NC(=O)C2)c1 | 226 to 228
68 | CSC1=NS(=O)(=O)CCCS1 | 91
69 | Nc1nc(N)nc(-c2ccc(C(O)c3ccccc3)cc2)n1 (racemic) | 214 to 216
70 | CCOC(=O)c1sc(SC(C)C)c2c1CCc1nc(C)oc1-2 | 62 to 63
71 | N#CC1CN1C(=O)Oc1ccc([N+](=O)[O-])cc1 (stereo not given) | 100 to 104
72 | Clc1ccc2c(c1)C(c1ccccc1Cl)=NCc1nccn1-2 | 179 to 180
73 | Cn1ccc(-c2cc(OC(F)F)n(-c3ccc(NC(=O)c4ccncc4F)cc3)n2)c1 | 135 to 136
74 | CSC(=CC(=O)c1ccccc1)CC(=O)c1ccccc1 | 106 to 108
75 | CCOC(=O)C1CCc2[nH]c3ccccc3c2C1 (stereo not given) | 95 to 96

Row | SMILES | melting point [°C]
76 | CCOC(=O)C(NC(=O)N1CCc2cc(S(=O)(=O)N3CCN(c4cccc(Cl)c4)CC3)ccc21)C(C)C (stereo not given) | 143 to 144
77 | CC(=O)Nc1c(C#N)cnn1-c1ccc(C)cc1Cl | 146 to 147
78 | O=C(O)c1ccc(-c2ncn(-c3ccc(OC(F)(F)C(F)(F)F)cc3)n2)cc1 | 225
79 | CC(C)(NC(=O)C1=C(C(=O)Nc2cc(OC3CCCC3)c(Cl)cc2F)CCCC1)c1cccc(Cl)c1 | 222 to 226
80 | Cc1ccc(S(=O)(=O)OC[C@H](O)CO)cc1 | 54 to 59
81 | CCOC(=O)CC1CN=C(c2cc3cc(OC(F)(F)F)cc(N(C)S(=O)(=O)c4cccs4)c3[nH]2)S1 (stereo not given) | 93 to 94
82 | COc1ccc(C2CC(C(C)(C)C)=NN2c2ccc(C(=O)O)cc2)cc1 (stereo not given) | 209
83 | OC1(c2ccc(-c3cncnc3)cc2)CN2CCC1CC2 (stereo not given) | 184 to 185
84 | CON(C)C(=O)NN(C(=O)Cl)c1cccc2c1OC(C)C2 (stereo not given) | 91 to 93
85 | Cc1cc(C2=NOC(c3cc(Cl)cc(Cl)c3)(C(F)(F)F)C2)ccc1C(=O)Nc1ncc(C#N)cn1 (stereo not given) | 118 to 121
86 | COc1ccc(Oc2ccc(C(=O)NC(C(=O)O)C(C)C)cc2)cc1 (stereo not given) | 156
87 | C1=C(c2ccccc2)CCN(CCCCc2cnc3ccccc3c2)C1 | 92.8 to 93.9
88 | COCCn1cc(C(=O)O)c2c(Cl)cccc21 | 142 to 145
89 | COC(=O)Cc1ccc(C(O)(C#N)c2ccccc2)n1C (stereo not given) | 137 to 138
90 | COC(=O)c1cc(Cl)cc2c1OC(C)(C)C(=O)N2 | 178 to 179
91 | CNc1nc(C)c(-c2ccnc(Nc3ccc(Cl)c(CO)c3)n2)s1 | 191 to 193
92 | CC(C)Oc1cccc(N2CC(=O)NC(=O)N2)c1 | 170 to 172
93 | O=c1[nH]nc2n1-c1ccc(Cl)nc1C(c1ccccc1)=NC2 | 222 to 224
94 | Cc1nc(-c2ccc3c(c2)CCCC3)c(C(=O)O)o1 | 183 to 185
95 | CNC(=O)Cc1c(-c2ccc(C)cc2)nc2n(C)c3ccccc3n12 | 251 to 252
96 | Cc1cc(Nc2ccccc2C(=O)O)n(Cc2ccncc2)n1 | 235 to 238
97 | CC(NC(=O)CC(NC(=O)c1ccccc1)C(=O)O)C(=O)N1CCCC1C(=O)O (stereo not drawn) ({Bz-βAsp}-Ala-Pro-OH; configuration not given here) | 110
98 | COc1cc(C)c2c(c1C)CC(=O)N2 | 262 to 263
99 | CC(C)(C)C(=O)OCOC(=O)C1N2C(=O)C(NC(=O)C(N)c3ccccc3)C2SC1(C)C (stereo not given) | 114 to 116
100 | COc1cc(NC(=O)CCCCCN2CCN(c3ccc(Cl)c(Cl)c3)CC2)c2nccc(C)c2c1 | 99 to 100

Reference: a melting point compilation (Tetko et al.; mined from patent text by program, amines drawn as free bases though some values may be those of a salt)
